# According to patent publication US8877748B2, “Heterocyclic fused anthraquinone derivatives, manufacturing method and pharmaceutical composition using thereof” (National Defense Medical Center, priority 2012, dated 2014):
# Assays:
# [1] = system: PC-3 prostate cancer cell line; assay: SRB assay cell viability, PC-3 prostate cancer cell line; format: cell-based, human; details: Homo sapiens, PC-3 prostate cancer cell line, Table II prints no unit, μM printed, read-out: SRB assay: 50% inhibition of cancer cell proliferation of sample concentration (IC50) of PC-3 prostate cancer cell line
# [2] = system: HT29; assay: NCI one-dose screening, colon cancer HT29; format: cell-based, human; details: 10 μM
# [3] = system: HCT-116; assay: NCI one-dose screening, colon cancer HCT-116; format: cell-based, human; details: 10 μM
# [4] = system: SF-539; assay: NCI one-dose screening, CNS cancer SF-539; format: cell-based, human; details: 10 μM
# [5] = system: A549/ATCC; assay: NCI one-dose screening, non-small cell lung cancer A549/ATCC; format: cell-based, human; details: 10 μM
# [6] = system: OVCAR-5; assay: NCI one-dose screening, ovarian cancer OVCAR-5; format: cell-based, human; details: 10 μM
# [7] = system: NCI-H522; assay: NCI one-dose screening, non-small cell lung cancer NCI-H522; format: cell-based, human; details: 10 μM
# [8] = system: MALME-3M; assay: NCI one-dose screening, melanoma MALME-3M; format: cell-based, human; details: 10 μM
# [9] = system: NCI-H460; assay: NCI one-dose screening, non-small cell lung cancer NCI-H460; format: cell-based, human; details: 10 μM
# [10] = system: SN12C; assay: NCI one-dose screening, renal cancer SN12C; format: cell-based, human; details: 10 μM
# [11] = system: LOX IMVI; assay: NCI one-dose screening, melanoma LOX IMVI; format: cell-based, human; details: 10 μM
# [12] = system: NCI-H322M; assay: NCI one-dose screening, non-small cell lung cancer NCI-H322M; format: cell-based, human; details: 10 μM; Non-small cell lung cancer
# [13] = system: COLO 205; assay: NCI one-dose screening, colon cancer COLO 205; format: cell-based, human; details: 10 μM
# [14] = system: UACC-257; assay: NCI one-dose screening, melanoma UACC-257; format: cell-based, human; details: 10 μM
# [15] = system: SK-MEL-5; assay: NCI one-dose screening, melanoma SK-MEL-5; format: cell-based, human; details: 10 μM
# [16] = system: SNB-75; assay: NCI one-dose screening, CNS cancer SNB-75; format: cell-based, human; details: 10 μM
# [17] = system: SR; assay: NCI one-dose screening, leukemia SR; format: cell-based, human; details: 10 μM
# [18] = system: UACC-62; assay: NCI one-dose screening, melanoma UACC-62; format: cell-based, human; details: 10 μM
# [19] = system: HCT-15; assay: NCI one-dose screening, colon cancer HCT-15; format: cell-based, human; details: 10 μM
# [20] = system: RXF, 393; assay: NCI one-dose screening, renal cancer RXF, 393; format: cell-based, human; details: 10 μM
# [21] = system: PRMI-8226 cell line; assay: NCI one-dose screening, leukemia PRMI-8226; format: cell-based, human; details: 10 μM
# [22] = system: SNB-19; assay: NCI one-dose screening, CNS cancer SNB-19; format: cell-based, human; details: 10 μM
# [23] = system: NCI-H23; assay: NCI one-dose screening, non-small cell lung cancer NCI-H23; format: cell-based, human; details: 10 μM
# [24] = system: NCI-H226; assay: NCI one-dose screening, non-small cell lung cancer NCI-H226; format: cell-based, human; details: 10 μM
# [25] = system: SK-MEL-28; assay: NCI one-dose screening, melanoma SK-MEL-28; format: cell-based, human; details: 10 μM
# [26] = system: HCC-2998; assay: NCI one-dose screening, colon cancer HCC-2998; format: cell-based, human; details: 10 μM
# [27] = system: HOP-62; assay: NCI one-dose screening, non-small cell lung cancer HOP-62; format: cell-based, human; details: 10 μM
# [28] = system: SK-MEL-2; assay: NCI one-dose screening, melanoma SK-MEL-2; format: cell-based, human; details: 10 μM
# [29] = system: OVCAR-3; assay: NCI one-dose screening, ovarian cancer OVCAR-3; format: cell-based, human; details: 10 μM
# [30] = system: NCl/ADR-RES; assay: NCI one-dose screening, breast cancer NCl/ADR-RES; format: cell-based, human; details: 10 μM; listed under Ovarian cancer
# [31] = system: 786-O; assay: NCI one-dose screening, renal cancer 786-O; format: cell-based, human; details: 10 μM
# [32] = system: OVCAR-4; assay: NCI one-dose screening, ovarian cancer OVCAR-4; format: cell-based, human; details: 10 μM
# [33] = system: U251; assay: NCI one-dose screening, CNS cancer U251; format: cell-based, human; details: 10 μM
# [34] = system: K562cell line; assay: NCI one-dose screening, leukemia K562; format: cell-based, human; details: 10 μM
# [35] = system: MOLT-4; assay: NCI one-dose screening, leukemia MOLT-4; format: cell-based, human; details: 10 μM
# [36] = system: KM12; assay: NCI one-dose screening, colon cancer KM12; format: cell-based, human; details: 10 μM
# [37] = system: ACHN; assay: NCI one-dose screening, renal cancer ACHN; format: cell-based, human; details: 10 μM
# [38] = system: OVCAR-8; assay: NCI one-dose screening, ovarian cancer OVCAR-8; format: cell-based, human; details: 10 μM
# [39] = system: IGROV1; assay: NCI one-dose screening, ovarian cancer IGROV1; format: cell-based, human; details: 10 μM
# [40] = system: HL-60, TB; assay: NCI one-dose screening, leukemia HL-60, TB; format: cell-based, human; details: 10 μM
# [41] = system: SF-268; assay: NCI one-dose screening, CNS cancer SF-268; format: cell-based, human; details: 10 μM
# [42] = system: M14; assay: NCI one-dose screening, melanoma M14; format: cell-based, human; details: 10 μM
# [43] = system: TK-10; assay: NCI one-dose screening, renal cancer TK-10; format: cell-based, human; details: 10 μM
smiles,measurement,setting,value
"CCN(CC)c1cc2c(c3nsnc13)C(=O)c1ccccc1C2=O [C5, 4-(diethylamino)anthra[2,1-c][1,2,5] thiadiazol-6,11-dione]",melting point,,204 to 205 °C
same,IC50,[1],1.1 µM
"O=C1c2ccccc2C(=O)c2c1cc(SCc1ccc(Cl)cc1)c1nsnc21 [C56, 4-(4-chloro-benzylthio)anthra[2,1-c] [1,2,5]thiadiazol-6,11-dione]",Growth Percent HT29,[2],96.41%
same,Growth Percent HCT-116,[3],114.73%
same,Growth Percent SF-539,[4],97.95%
same,Growth Percent A549/ATCC,[5],100.62%
same,Growth Percent OVCAR-5,[6],104.48%
same,Growth Percent NCI-H522,[7],82.61%
same,Growth Percent MALME-3M,[8],86.38%
same,Growth Percent NCI-H460,[9],104.55%
same,melting point,,261 to 262 °C
same,Growth Percent SN12C,[10],93.61%
same,Growth Percent LOX IMVI,[11],86.69%
same,Growth Percent NCI-H322M,[12],94.10%
same,Growth Percent COLO 205,[13],99.94%
same,Growth Percent UACC-257,[14],78.70%
same,Growth Percent SK-MEL-5,[15],89.57%
same,Growth Percent SNB-75,[16],63.35%
same,Growth Percent SR,[17],63.73%
same,Growth Percent UACC-62,[18],101.52%
same,Growth Percent HCT-15,[19],97.91%
same,Growth Percent RXF 393,[20],104.79%
same,Growth Percent RPMI-8226,[21],86.78%
same,Growth Percent SNB-19,[22],104.30%
same,Growth Percent NCI-H23,[23],82.13%
same,Growth Percent NCI-H226,[24],82.14%
same,Growth Percent SK-MEL-28,[25],95.35%
same,Growth Percent HCC-2998,[26],102.54%
same,Growth Percent HOP-62,[27],89.15%
same,Growth Percent SK-MEL-2,[28],109.63%
same,Growth Percent OVCAR-3,[29],113.46%
same,Growth Percent NCI/ADR-RES,[30],95.73%
same,Growth Percent 786-0,[31],117.98%
same,Growth Percent OVCAR-4,[32],84.19%
same,Growth Percent U251,[33],94.44%
same,Growth Percent K562,[34],67.53%
same,Growth Percent MOLT-4,[35],22.72%
same,IC50,[1],> 15 µM
same,Growth Percent KM12,[36],105.46%
same,Growth Percent ACHN,[37],94.35%
same,Growth Percent OVCAR-8,[38],94.19%
same,Growth Percent IGROV1,[39],84.25%
same,Growth Percent HL-60(TB),[40],57.42%
same,Growth Percent SF-268,[41],107.19%
same,Growth Percent M14,[42],126.40%
same,Growth Percent TK-10,[43],121.91%
"CC(C)(C)c1ccc(CSc2cc3c(c4nsnc24)C(=O)c2ccccc2C3=O)cc1 [C57, 4-(4-tert-butylbenzylthio)anthra[2,1-c] [1,2,5]thiadiazol-6,11-dione]",melting point,,256 to 257 °C
same,IC50,[1],7.47 µM
